Experimental data: paper PMC3093368 (PLoS Pathogens, 2011)
“Also recorded” adds a separate entry of the source. Blank lines part the entries; values can stand above or below the compound they belong to. Ends that are not written are not given here.

Assays:
[1] = test system: HIVLAI-infected T1-B7 cells / Q9VF/5D-specific CTLs; assay: Mouse CTL recognition of HIV-infected T1-B7 cells after epoxomicin treatment (IFNγ-ELISpot); format: cell-based
Procedure: Mouse CTL lines were derived from splenocytes of peptide immunized HLA-B*07^mα3 transgenic mice. In brief, these mice express HLA-B*0702 heavy chain with a murine α3 domain and their H-2K^b and H-2D^b class Ia genes have been inactivated. Cytolytic activity of splenocyte cultures was first assessed in a^51Cr release assay. Peptide specific CTL lines were stimulated in vitro (5 µg/mL of peptide) and cultured in RPMI 1640 medium supplemented with 10% FCS, 0.5 µM 2-β-mercaptoethanol (Sigma), 100 IU/mL penicillin and 100 µg/mL streptomycin (Gibco-BRL). Ten days later, 2×10^3, 400 and 80 CTLs in triplicates were stimulated by 10^5 HIV-1-infected T1-B7 cells and IFNγ release was detected by ELISpot assay. Cross-reactivity of Q9VF/5D- and Q9VF/5N-specific CTLs was tested in IFNγ-ELISpot and Cr^51-release assays using T1-B7 peptide-loaded cells. Mouse CTL lines specific for the HLA-B*0702-restricted HIV-1 Nef-derived epitope F10LR (Nef 68[…]77; [22]) were used as controls. When stated, HIV-infected T1-B7 cells were treated with epoxomicin (6 h, 1 µg/ml, Calbiochem). To remove residual MHC-peptide complexes, epoxomycin-exposed cells were treated with a citrate-phosphate buffer (pH 3.3) containing 1% BSA and washed twice, prior co-culture with CTLs for an additional 8 h.

immunoproteasomes (IP) = assay: Immunoproteasomes isolated from T2.27mp cells, in 20 mM Hepes/KOH, pH 7.8, 2 mM magnesium acetate and 2 mM dithiothreitol; details: up to 18 h
[2] = In vitro immunoproteasome digestion of 27mer peptides, MS/MS analysis; format: in vitro ADME; details: immunoproteasomes isolated from T2.27mp cells, 3 nmol 27mer, 1 µg immunoproteasome; for metabolised at 0.5 h, 30 µM: 100 µl 20 mM Hepes/KOH pH 7.8, 2 mM Mg acetate, 2 mM DTT, RP-HPLC ESI MS intensity, 30 min, read-out: substrate degraded after 30 min; for metabolised at 2 h, 30 µM: Hepes/KOH pH 7.8, MS intensity, read-out: substrate degraded after 2 h
Procedure: Immunoproteasomes were isolated from T2.27mp cells (that stably express all three immunosubunits) as previously described. Purified proteasomes were analyzed by SDS-PAGE. The yield was calculated at 90–95%. The 27mer peptides encompassing Q9VF/5D or Q9VF/5N were synthesized using standard Fmoc method on an Applied Biosystems 433A automated synthesizer. The peptides were purified by HPLC and analyzed by mass spectrometry. Three nmol of peptides were digested in vitro using 1 µg of proteasomes (for 0.5, 1, 2, 4, 8 and 18 h) in 100 µl of buffer containing 20 mM Hepes/KOH, pH 7.8, 2 mM magnesium acetate and 2 mM dithiothreitol. Reactions were stopped by the addition of trifluoroacetic acid to a final concentration of 0.3%. The digestions were analyzed, by mass spectrometry (RP-HPLC ESI) and the products were identified by MS/MS.

immunoproteasome (IP) = assay: Immunoproteasomes isolated from T2.27mp cells; 20 mM Hepes/KOH, pH 7.8, 2 mM magnesium acetate, 2 mM dithiothreitol; details: human, up to 18 h

Compound: CC[C@H](C)[C@H](NC(=O)[C@H]([C@@H](C)CC)N(C)C(C)=O)C(=O)N[C@H](C(=O)N[C@@H](CC(C)C)C(=O)[C@@]1(C)CO1)[C@@H](C)O [Epoxomicin, epoxomicin]
effect on activation of Q9VF/5D-specific CTLs by HIVLAI-infected cells ([1]; epoxomicin 1 µg/ml, 6 h at 37°C, citrate-phosphate buffer pH 3.3 wash, 8 h co-culture, IFNγ-ELISpot, representative of three CTL clones): abolished the capacity of HIVLAI-infected cells to activate Q9VF/5D-specific CTLs
effect on MHC-density and presentation of exogenous peptide ([1]; epoxomicin-treated T1-B7 cells, FACS, exogenous peptide 0.1 µg/ml): affected neither MHC-density

Compound: MGKSSRREGFQPRSDTHVFSIIRRSHP
cleaved bond (immunoproteasomes (IP)): F10-Q11, major; also recorded: F19-S20, major, 30 min; also recorded: I22-R23, major; also recorded: R24-S25, major; also recorded: S14-D15; also recorded: S4-S5; also recorded: R6-R7; also recorded: R23-R24

Compound: MGKSSRREGFQPRSDTHVFSIIRRSHP [Q9VF/5D substrate]
metabolised at 0.5 h, 30 µM [2]: 24%
metabolised at 2 h, 30 µM [2]: 96%

fragment found (immunoproteasome (IP)): Q9VF (Q11-F19), minor
Compound: MGKSSRREGFQPRSNTHVFSIIRRSHP
cleaved bond (immunoproteasomes (IP)): F19-S20, 30 min; also recorded: S4-S5; also recorded: F10-Q11, 1 h; also recorded: I22-R23; also recorded: R24-S25; also recorded: N15-T16, major, 30 min

Compound: MGKSSRREGFQPRSNTHVFSIIRRSHP [Q9VF/5N substrate]
metabolised at 0.5 h, 30 µM [2]: 24%
metabolised at 2 h, 30 µM [2]: 96%
